Compound: Brc1ccc(C2CCC(NC(Cc3ccccc3)c3ccccc3)=N2)cc1 (stereo not shown)
- melting point: 130 to 134 °C

— US8221775B2, “Pyrrolin-2-ylamino compounds for combating animal pests” (BASF SE, priority 2008, dated 2012)
